Laboratory results from US20230240953A1, “AN ANTIMICROBIAL COMPOSITION, PROCESS FOR PREPARING THE SAME AND METHOD OF USE THEREOF” (ISP INVESTMENTS LLC, priority 2020, published 2023).
Converted amounts (≈) assume the structure as drawn.

Columns and labels:
Format in all cases: cell-based
[1] = system: Aspergillus brasiliensis 16404; test: Checkerboard microplate synergy assay, compound A = HPB; conditions: Aspergillus brasiliensis, 16404, HPB alone, read-out: HPB (QA): MIC of HPB acting alone
Procedure: (§1) The synergistic antimicrobial effect was determined using a commonly accepted method described by Kull A. C, Eisman, P. C. Sylwestrowicz, H. D. and Mayer, R. L. 1961. Applied Microbiology, 9:538-541
(§2) Briefly, the standard checkerboard approach was used to make all the dilutions. HPB (compound A) solution was prepared and then serially diluted in DMSO using the 96-well dilution plate. Automated liquid handler was then used to stamp multiple assay plates using this dilution plate. Each well of the assay plate was then supplemented with a predetermined concentration of the second antimicrobial (compound B). The final concentration of DMSO was kept constant across the plate for each assay, not exceeding 3% (w/w).
To evaluate antifungal activity of the actives, freshly prepared A. brasiliensis spores were harvested and resuspended in Yeast and Malt Broth (YMB). The spore suspension was then added to the appropriate plates with the final density being 10^5 cfu/ml.
(§3) To evaluate antibacterial activity of the actives, freshly prepared S. aureus and B. cepacia cells were harvested and resuspended in Trypticase Soy Broth (TSB). The cell suspension was then added to the wells of the appropriate plates with the final cell density being 10^6 cfu/ml. Fungal plates were incubated at 28° C. for 4-5 days, prior to being evaluated. Bacterial plates were incubated for 48 hours at 35° C. prior to being evaluated.
(§4) Synergy Index (SI)=Qa/QA+Qb/QB • Qa is the MIC of compound A (HPB) in ppm, when compound A is being used in combination with compound B • QA is the MIC of compound A (HPB) in ppm, acting alone • Qb is the MIC of compound B in ppm, when the compound B is being used in combination with compound A • QB is the MIC of compound B in ppm, acting alone Each ratio Qa/QA and Qb/QB is sometimes referred to as Fractional Inhibitory Concentrations (FICs) of compounds A and B, respectively, when these two compounds are being used in combination with one another. The sum of FICs constitute the Synergy Index (SI). The synergistic effect is indicated if the Synergy Index is below one (SI<1). An additive effect is indicated if the Synergy Index is equal to one (SI=1). An antagonistic effect is indicated if synergy index is greater than one (SI>1). The lower the SI index the greater the synergy.

Escherichia coli 8739 = test: Minimal inhibitory concentration (MIC), microplate broth dilution; conditions: TSB, 10^6 cfu/ml, 48 hours at 35° C., read-out: Minimal Inhibitory Concentrations (MICs) mean values, E. coli
Procedure: (§5) Briefly, each active was dissolved and then serially diluted in DMSO using a 96-well dilution microplate. Automated liquid handler was then used to stamp multiple assay plates out of this dilution plate. The appropriate growth medium containing a desired microorganism was then added to each well of the plate. For bacterial strains, Trypticase Soy Broth (TSB) was used with the final cell density of the microorganisms, in each well, being 10^6 cfu/ml. For fungal strains, Yeast Malt Broth (YMB) was used with the final density of each microorganism being 10^5 cfu/ml. Bacterial plates were incubated for 48 hours at 35° C. and fungal plates were incubated for 4-5 days at 28° C. prior to being evaluated. The lowest concentration of each compound to inhibit any visible growth was defined as minimum inhibitory concentration (MIC). In some cases, the highest tested concentration of the active was limited by its solubility in water. Whenever MIC was greater than the highest tested concentration, it was reported as being equal to, or greater than (>) the previous hypothetical dilution.

[2] = system: Staphylococcus aureus 6538; test: as above; conditions: TSB, 10^6 cfu/ml, 48 hours at 35° C., read-out: Minimal Inhibitory Concentrations (MICs) mean values, S. aureus
Procedure: as §5

[3] = system: Burkholderia cepacia 25416; test: as above; conditions: TSB, 10^6 cfu/ml, 48 hours at 35° C., read-out: Minimal Inhibitory Concentrations (MICs) mean values, B. cepacia
Procedure: as §5

[4] = system: Aspergillus brasiliensis 16404; test: as above; conditions: YMB, 10^5 cfu/ml, 4-5 days at 28° C., read-out: Minimal Inhibitory Concentrations (MICs) mean values, A. brasiliensis
Procedure: as §5

[5] = system: Pseudomonas aeruginosa 9027; test: as above; conditions: TSB, 10^6 cfu/ml, 48 hours at 35° C., read-out: Minimal Inhibitory Concentrations (MICs) mean values, P. aeruginosa
Procedure: as §5

Candida albicans 10231 = test: as above; conditions: YMB, 10^5 cfu/ml, 4-5 days at 28° C., read-out: Minimal Inhibitory Concentrations (MICs) mean values, C. albicans
Procedure: as §5

[6] = system: Staphylococcus aureus 6538; test: Checkerboard microplate synergy assay, compound A = HPB; conditions: Staphylococcus aureus, 6538; S. aureus; HPB alone; read-out: HPB (QA): MIC of HPB acting alone
Procedure: as §1, §2, §3, §4

[7] = system: Burkholderia cepacia 25416; test: as above; conditions: Burkholderia cepacia, 25416; B. cepacia; HPB alone; read-out: HPB (QA): MIC of HPB acting alone
Procedure: as §1, §2, §3, §4

Row | Compound | MIC [1] | MIC (Escherichia coli 8739) | MIC [2] | MIC [3] | MIC [4] | MIC [5] | MIC (Candida albicans 10231) | MIC [6] | MIC [7]
1 | CC(=O)CCc1ccc(O)cc1 [Raspberry ketone, 4-(4-hydroxyphenyl) butan-2-one] | 4000 µg/mL | 4000 µg/mL (≈ 24.4 mM) | 28000 µg/mL (≈ 171 mM) | 2000 µg/mL (≈ 12.2 mM) | 4000 µg/mL (≈ 24.4 mM) | 4000 µg/mL (≈ 24.4 mM) | 4000 µg/mL (≈ 24.4 mM) | ≥ 8000 µg/mL | 2000 µg/mL
2 | CC(=O)/C=C/c1ccc(O)cc1 [4-Hydroxybenzylideneacetone, (E)-4-(4-hydroxyphenyl)but-3-en-2-one] |  | 2000 µg/mL (≈ 12.3 mM) | 500 µg/mL (≈ 3.08 mM) | 1000 µg/mL (≈ 6.17 mM) | 1000 µg/mL (≈ 6.17 mM) | 4000 µg/mL (≈ 24.7 mM) | 500 µg/mL (≈ 3.08 mM) |  | 
3 | COc1ccc(CCC(C)=O)cc1 [Raspberry ketone methyl ether, 4-(4-methoxyphenyl)butan-2-one] |  | 2000 µg/mL (≈ 11.2 mM) | 28000 µg/mL (≈ 157 mM) | 1000 µg/mL (≈ 5.61 mM) | 1000 µg/mL (≈ 5.61 mM) | 4000 µg/mL (≈ 22.4 mM) | 2000 µg/mL (≈ 11.2 mM) |  | 
